Results published in patent publication US20050176649A1, “Iap binding peptides and assays for identifying compounds that bind iap” (priority 2001, published 2005).
Non-standard residues stand in square brackets, D forms with d. Residues, ends and D or L forms follow the SMILES beside them. ξ: configuration not given here. NMeF = CN[C@@H](Cc1ccccc1)C(=O)O; NMeV = CN[C@H](C(=O)O)C(C)C; ξAbu = CCC(N)C(=O)O

What was measured:
[1] = target: T1, BIR3 domain of XIAP (recombinant XIAP-BIR3, residues 238-358) (Homo sapiens, UniProt P98170); experiment: Fluorescence-based competition assay of tetrapeptide libraries (Example 1); type: binding, mammalian
T1 construct: Recombinant XIAP-BIR3 (residues 238-358); GST (N, cleaved yes); made in house; host or cells: E. coli
Text: Expression and Purification of BIR3. […] The soluble fraction of the GST-BIR3 in the E. coli lysate was purified over a glutathione sepharose column, and further purified by anion exchange chromatography (Mono-Q, Amersham Biosciences). The fusion protein was cleaved by thrombin, and the GST portion was removed by the glutathione sepharose column. The BIR3 protein was further purified over a gel filtration column (Superdex 30, Amersham Biosciences).
Fluorescence Experiments. Luminescence spectra were recorded using a Photon Technologies, Inc. fluorometer with a Xe arc lamp and a PMT detector. […] The buffer used in all of the fluorescence experiments was 50 mM potassium phosphate, 100 mM NaCl, 2 mM 1,4-dithio-DL-threitol (DTT), pH 7.
Assay of Tetrapeptide Libraries. The samples were prepared in a 96 well plate lined with glass tubes, to prevent adsorption of the dye to plastic. The plate was stored on ice in the dark between measurements. […] 390 μL of this stock solution were added to 50 wells of the 96 well plate. 50 μL of the test tetrapeptide solutions were added and mixed immediately prior to taking the emission spectra. The final solutions were 5 μM in both badan and BIR3, and approximately 20-30 μM in the tetrapeptide solutions. […] 50 μL of water was added to these wells, again as controls, to determine the intensity of the unbound dye.
The binding of various tetrapeptide mimics to the BIR3 domain of XIAP was determined using a fluorescence-based competition assay. The assay is based on an environment-sensitive fluorogenic dye molecule, badan. Badan is a dye whose sensitivity to environmental changes has previously been used to probe protein binding interactions. […] As the dye is displaced from the binding pocket by the test molecule, the emission shifts back towards the aquated spectrum.

[2] = target: T2, BIR3 domain of XIAP (Homo sapiens, UniProt P98170); experiment: Fluorescence displacement assay: AVPC-badan displaced from BIR3 by test tetrapeptide (typical assay, Tables 1 and 2); type: binding, mammalian; conditions: for K: binding (equilibrium) constant for displacement of AVP-dye, position-4 library, 5 μM dye and protein, larger = greater affinity; for Intensity (470 nm): emission intensity of AVPC-badan with BIR3 and test tetrapeptide, excitation 387 nm, lower = more dye displaced; for Fraction free: fraction of AVPC-badan free (displaced from BIR3), from intensity at 470 nm; for Krelative: relative equilibrium constant for displacement of AVP-dye, larger = greater affinity for BIR3
T2 construct: Recombinant XIAP-BIR3 (residues 238-358); GST (N, cleaved yes); made in house; host or cells: E. coli
Text: The ability to quickly assay small molecules for their effectiveness in disrupting protein-protein interactions is critical to the development of viable drug candidates. One aspect of the present invention comprises an assay to test the binding affinity of a library of tetrapeptide molecules for the BIR3 domain of an inhibitor of apoptosis protein (LAP), particularly the mammalian XIAP. The assay is based on a detectable label, preferably a fluorogenic dye molecule. In preferred embodiments, the fluorophore is attached to a tripeptide, AVP, whose sequence matches the N-terminal three residues of Smac. The general structure of this molecule, therefore, is AVP[X], wherein X is the fluorophore. The molecule is referred to herein as an “AVP-dye”. The AVP-dye packs into the groove of the BIR3, causing a large shift in emission maximum and intensity when the environment of the dye changes from water to the hydrophobic pocket of the protein. If a molecule (e.g. the native Smac protein or a tetrapeptide mimic) displaces the dye, then emission will shift back to the spectrum observed in water. Since the emission intensity is related to the binding of the tetrapeptide, the intensity can be used to estimate the equilibrium constant, K, for displacement of the AVP-dye by the tetrapeptide. The larger the equilibrium constant, the greater affinity the tetrapeptide has for the BIR3.
The aforementioned AVP-dye is used in an assay of test compounds that may, like the Smac tetrapeptide AVPI, bind to the BIR3 domain of XIAP, thereby relieving XIAP-mediated suppression of apoptosis. This is a high-throughput, cell-free assay, that is assembled as follows. A protein comprising the BIR3 domain of an IAP is placed in an assay medium comprising a suitable buffer, as described above. Preferably, this is a recombinant protein comprising the BIR3 domain, but a full IAP protein also may be used. An aliquot of the AVP-dye is added to the reaction mixture, in the presence of the test compound. Controls comprise the BIR3 and the dye in the absence of the test compound and, optionally, BIR3 and the dye in the presence of the naturally occurring tetrapeptide, AVPI. […] Alternatively, a emission spectrum is measured at the selected excitation wavelength. In one type of measurement, the test compound is added and an emission spectrum is measured by scanning from, e.g., 460-480 nm. In another type of measurement, the emission intensity at a particular wavelength, e.g., 470 nm, is measured. […] Thus, the binding affinity of the test compound may be calculated as a function of its ability to displace the dye from the BIR3 domain, according to the following calculation: [formula]
Stock solution of badan, BIR3, and buffer were mixed: 2.5 ml of badan, 1.75 ml BIR3, and 15.25 ml of buffer were mixed in a glass vial which had been chilled to 4° C. Added 390 μL of the stock solution to 50 wells in the pre-chilled 96 well plate (wells A1-E2).
Stock solution of badan and buffer were mixed: 150 μL badan and 1020 μL of buffer were mixed in a small glass vial (also chilled) and added to 3 wells on the plate in 390 μL aliquots (F1-F3).
The 96 well plate was stored over ice in an insulated bucket while the emission spectra of the samples were taken. Fifty μL of the appropriate test solution (or water, for the control experiments) was added with a micropipet, the solution mixed with a Pasteur pipet before adding the sample to the fluorescence cuvette. While one sample was being scanned, the cuvette from the previous scan was washed with EtOH and then next sample was prepared.

T1 sequence (P98170 238-358): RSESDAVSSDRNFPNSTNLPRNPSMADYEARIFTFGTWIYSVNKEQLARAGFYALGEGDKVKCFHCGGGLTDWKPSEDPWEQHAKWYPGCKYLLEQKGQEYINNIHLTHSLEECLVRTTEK
T2 sequence (P98170 238-358): as above

Structure (SMILES) | Kd [1] [µM] | further results
CC(C)[C@H](NC(=O)[C@H](C)N)C(=O)N[C@@H](C)C(=O)N[C@@H](Cc1ccccc1)C(N)=O [AVAF] | 0.56 | 
CC[C@H](C)[C@H](NC(=O)[C@@H]1CCCN1C(=O)[C@@H]1CCCN1C(=O)[C@H](C)N)C(N)=O [APPI] (H-APPI-NH2) | > 100 | 
CC(C)[C@@H](C(=O)N1CCC[C@H]1C(=O)N(C)[C@@H](Cc1ccccc1)C(N)=O)N(C)C(=O)[C@H](C)N [A(N-Me)VP(N-Me)F] (H-A[NMeV]P[NMeF]-NH2; N-terminus and C-terminus assumed) | 91 | 
CC[C@H](C)[C@H](NC(=O)[C@@H]1CCCN1C(=O)[C@@H](NC(=O)[C@H](C)N)[C@@H](C)O)C(N)=O [ATPI] (H-ATPI-NH2; N-terminus and C-terminus assumed) | 1.2 | 
CC(C)[C@@H](C(=O)N1CCC[C@H]1C(=O)N[C@@H](Cc1ccccc1)C(N)=O)N(C)C(=O)[C@H](C)N [A(N-Me)VPF] | 83 | 
CC(C)[C@H](NC(=O)[C@H](C)N)C(=O)N1CCC[C@H]1C(=O)N[C@@H](C)C(N)=O [AVPA] (H-AVPA-NH2; N-terminus and C-terminus assumed) | 14 | K [2]: 0.05518
CC[C@H](C)[C@H](NC(=O)[C@@H]1CCCN1C(=O)[C@H](CC(C)C)NC(=O)[C@H](C)N)C(N)=O [ALPI] (H-ALPI-NH2; N-terminus and C-terminus assumed) |  | Intensity (470 nm) [2]: 38650; Fraction free [2]: 0.8679; Krelative [2]: 3.5812
CC[C@H](C)[C@H](NC(=O)[C@@H]1CCCN1C(=O)[C@H](Cc1c[nH]cn1)NC(=O)[C@H](C)N)C(N)=O [AHPI] (H-AHPI-NH2; N-terminus and C-terminus assumed) | 0.33 | Intensity (470 nm) [2]: 41450; Fraction free [2]: 0.8543
CC(C)[C@H](NC(=O)[C@@H]1CCCN1C(=O)[C@@H](NC(=O)[C@H](C)N)C(C)C)C(N)=O [AVPV] (H-AVPV-NH2; N-terminus and C-terminus assumed) | 1.5 | K [2]: 0.1011
CC(C)[C@H](NC(=O)[C@H](C)N)C(=O)N1CCC[C@H]1C(=O)N[C@@H](CCC(=O)O)C(N)=O [AVPE] (H-AVPE-NH2; N-terminus and C-terminus assumed) | 93 | K [2]: 0.03709
CC(C)[C@H](NC(=O)[C@H](C)N)C(=O)N1CCC[C@H]1C(=O)N[C@@H](CO)C(N)=O [AVPS] (H-AVPS-NH2; N-terminus and C-terminus assumed) | 4.4 | K [2]: 0.01304
CC(C)[C@H](NC(=O)[C@H](C)N)C(=O)N1CCC[C@H]1C(=O)N1CCC[C@H]1C(N)=O [AVPP] (H-AVPP-NH2; N-terminus and C-terminus assumed) | 5.7 | K [2]: 0.01069
CC[C@H](C)[C@H](NC(=O)[C@@H]1CCCN1C(=O)CNC(=O)[C@H](C)N)C(N)=O [AGPI] (H-AGPI-NH2; N-terminus and C-terminus assumed) | 46 | 
CC(C)[C@H](NC(=O)[C@H](C)N)C(=O)N1CCC[C@H]1C(=O)N[C@@H](CCC(N)=O)C(N)=O [AVPQ] (H-AVPQ-NH2) | > 100 | 
CC[C@H](C)[C@H](NC(=O)[C@@H]1CCCN1C(=O)[C@@H](NC(=O)CN)C(C)C)C(N)=O [GVPI] (H-GVPI-NH2; N-terminus and C-terminus assumed) | 9 | 
CC(C)[C@H](NC(=O)[C@H](C)N)C(=O)N1CCC[C@H]1C(=O)N[C@@H](CC(N)=O)C(N)=O [AVPN] (H-AVPN-NH2) | > 100 | 
CC[C@H](C)[C@H](NC(=O)[C@@H]1CCCN1C(=O)[C@H](CCC(=O)O)NC(=O)[C@H](C)N)C(N)=O [AEPI] (H-AEPI-NH2; N-terminus and C-terminus assumed) | 2.7 | 
CC[C@H](C)[C@H](NC(=O)[C@@H]1CCCN1C(=O)[C@H](CC(N)=O)NC(=O)[C@H](C)N)C(N)=O [ANPI] (H-ANPI-NH2; N-terminus and C-terminus assumed) | 1.5 | 
CC[C@H](C)[C@H](NC(=O)[C@@H]1CCCN1C(=O)[C@H](CC(=O)O)NC(=O)[C@H](C)N)C(N)=O [ADPI] (H-ADPI-NH2; N-terminus and C-terminus assumed) | 17 | 
CCC(N)C(=O)N[C@H](C(=O)N1CCC[C@H]1C(=O)N[C@H](C(N)=O)[C@@H](C)CC)C(C)C (stereo partly drawn) [AbuVPI] (H-[ξAbu]VPI-NH2; N-terminus and C-terminus assumed) |  | Intensity (470 nm) [2]: 34770; Fraction free [2]: 0.8867
CC[C@H](C)[C@H](NC(=O)[C@@H]1CCCN1C(=O)[C@H](C(C)C)N(C)C(=O)[C@H](C)N)C(N)=O [A(N-Me)VPI] | 257 | 
CC[C@H](C)[C@H](NC(=O)[C@@H]1CCCN1C(=O)[C@@H](NC(=O)[C@H](C)N)[C@@H](C)CC)C(N)=O [AIPI] (H-AIPI-NH2; N-terminus and C-terminus assumed) |  | Intensity (470 nm) [2]: 44902; Fraction free [2]: 0.8375; Krelative [2]: 2.6613
CC(C)[C@H](NC(=O)[C@H](C)N)C(=O)N1CCC[C@H]1C(=O)N(C)[C@@H](Cc1ccccc1)C(N)=O [AVP(N-Me)F] (H-AVP[NMeF]-NH2; N-terminus and C-terminus assumed) | 0.89 | 
CC[C@H](C)[C@H](NC(=O)[C@@H]1CCCN1C(=O)[C@H](C)NC(=O)[C@H](C)N)C(N)=O [AAPI] (H-AAPI-NH2; N-terminus and C-terminus assumed) | 2.8 | 
CC[C@H](C)[C@H](NC(=O)[C@@H]1CCCN1C(=O)[C@@H](NC(=O)[C@@H](N)CO)C(C)C)C(N)=O [SVPI] | 27 | 
CC[C@H](C)[C@H](NC(=O)[C@@H]1CCCN1C(=O)[C@H](CO)NC(=O)[C@H](C)N)C(N)=O [ASPI] (H-ASPI-NH2; N-terminus and C-terminus assumed) | 1.4 | 
CC[C@H](C)[C@H](NC(=O)[C@@H]1CCCN1C(=O)[C@H](Cc1c[nH]c2ccccc12)NC(=O)[C@H](C)N)C(N)=O [AWPI] (H-AWPI-NH2; N-terminus and C-terminus assumed) | 0.99 | 
CC[C@H](C)[C@@H](C(N)=O)N(C)C(=O)[C@@H]1CCCN1C(=O)[C@@H](NC(=O)[C@H](C)N)C(C)C [AVP(N-Me)I] | 174 | 
C[C@H](N)C(=O)N[C@@H](CCCNC(=N)N)C(=O)N1CCC[C@H]1C(=O)N(C)[C@@H](Cc1ccccc1)C(N)=O [ARP(N-Me)F] (H-ARP[NMeF]-NH2; N-terminus and C-terminus assumed) | 0.71 | 
CC[C@H](C)[C@@H](C(N)=O)N(C)C(=O)[C@@H]1CCCN1C(=O)[C@H](CCCNC(=N)N)NC(=O)[C@H](C)N [ARP(N-Me)I] | 190 | 
